Experimental data: patent US20230233576A1, “ECLITASERTIB FOR USE IN TREATING CONDITIONS INVOLVING SYSTEMIC HYPERINFLAMMATORY RESPONSE” (priority 2020, published 2023)

Tested on: adult participants hospitalized for severe COVID-19
Test: Phase 1b severe COVID-19 study: ECG abnormalities (PCSA)
Type: in vivo, human
Conditions: 600 mg
Experimental: Physical examination including lung auscultation and assessment of consciousness, vital sign, electrocardiogram (ECG) parameters were measured per protocol.
For laboratory parameters (hematology, clinical chemistry, and urinalysis), vital signs, and ECG, incidences of potentially clinically significant abnormality (PCSA) values, actual values and change from baseline were summarized by treatment group.
For all laboratory, vital signs and ECG parameters, raw data and change from baseline were summarized in descriptive statistics by treatment group and scheduled time of measurement, with the exception of AST, ALT and alkaline phosphatase: instead of summarizing data in descriptive statistics, participants' profiles were presented through graphics by treatment group and with a color code to identify sites. The reason was that blood samples were processed by local laboratories with different normal ranges. For the rest of clinical laboratory these parameters it is reasonable to pool data as they are standard procedure and no significant differences in normal ranges were expected.

[1] = individual participant 70.0 kg, Discharge Before Day 15
[2] = individual participant 87.2 kg, Discharge Before Day 15
[3] = individual participant 120.0 kg, Day 15
[4] = individual participant 125.0 kg, Discharge Before Day 15

CN1C(=O)[C@@H](NC(=O)c2nnc(Cc3ccccc3)[nH]2)COc2cccnc21 [RIPKl Inhibitor]
HR (bpm) Delta (change from baseline) [1]: −25 bpm
HR (bpm) Value [1]: 76 bpm
PR % change from baseline [1]: 0.0%
PR (ms) Value [1]: 120 ms
QRS % change from baseline [1]: −38%
QRS (ms) Value [1]: 100 ms
QT (ms) Delta (change from baseline) [1]: 100 ms
QT (ms) Value [1]: 460 ms
QTcB (ms) Delta (change from baseline) [1]: 50 + ms
QTcB (ms) Value [1]: 517 ++ ms
QTcF (ms) Delta (change from baseline) [1]: 75 ++ ms
QTcF (ms) Value [1]: 495 ++ ms
HR (bpm) Delta (change from baseline) [2]: 18 bpm
HR (bpm) Value [2]: 86 bpm
PR % change from baseline [2]: 0.0%
PR (ms) Value [2]: 150 ms
QRS % change from baseline [2]: 25.0%
QRS (ms) Value [2]: 100 ms
QT (ms) Delta (change from baseline) [2]: 30 ms
QT (ms) Value [2]: 370 ms
QTcB (ms) Delta (change from baseline) [2]: 81 ++ ms
QTcB (ms) Value [2]: 443 ms
QTcF (ms) Delta (change from baseline) [2]: 63 ++ ms
QTcF (ms) Value [2]: 417 ms
HR (bpm) Delta (change from baseline) [3]: 0 bpm
HR (bpm) Value [3]: 69 bpm
PR % change from baseline [3]: 31.9%
PR (ms) Value [3]: 124 ms
QRS % change from baseline [3]: −28%
QRS (ms) Value [3]: 82 ms
QT (ms) Delta (change from baseline) [3]: 4 ms
QT (ms) Value [3]: 482 ms
QTcB (ms) Delta (change from baseline) [3]: 4 ms
QTcB (ms) Value [3]: 518 ++ ms
HR (bpm) Delta (change from baseline) [4]: −6 bpm
HR (bpm) Value [4]: 77 bpm
PR % change from baseline [4]: 0.0%
PR (ms) Value [4]: 160 ms
QRS % change from baseline [4]: −4.8%
QRS (ms) Value [4]: 80 ms
QT (ms) Delta (change from baseline) [4]: 118 ms
QT (ms) Value [4]: 466 ms
QTcB (ms) Delta (change from baseline) [4]: 121 ++ ms
QTcB (ms) Value [4]: 530 ++ ms
